Laboratory results from patent US11040056B2, “Benzimidazoles that enhance the activity of oligonucleotides” (The University of North Carolina at Chapel Hill, priority 2018, dated 2021).

Legend:
[1] = tested on: CFTR channel activity in human bronchial epithelial cells (HBEC) from a 3849+10 kbC-T homozygous patient; experiment: Ussing chamber analysis of CFTR function in 3849+10 kbC-T HBEC; assay type: cell-based
Excerpt: FIG. 11. CFTR activity restored to CF splicing mutation 3849+10 kbC-T using SSOs. SSOs were delivered in vitro by electroporation (˜100% efficiency), CF primary cells were differentiated on permeable supports and tested. Panel A. PCR analysis. The lower band is the correctly spliced CFTR. Panel B. Functional correction by Ussing chamber analysis.
FIG. 12. OEC Mediated Delivery of a SSO in 3849+10 kbC-T HBEC. Well-differentiated human bronchial epithelial cells (HBEC) derived from a 3849+10 kbC-T homozygous patient were incubated with corrective (LNA) SSO A from FIG. 1 (1 uM, overnight). Cells were then incubated with OEC UNC2383 in the luminal or serosal bath (4 uM, 2 hs). Both the SSO and OEC were added in cell growing medium. Seventy two hour later, HBEC were analyzed in Ussing chamber for CFTR function. Orkambi® was tested in parallel inserts.
Results: In vitro studies were performed in well-differentiated HBEC cells derived from a homozygous 3849+10 kbC→T CF patient (CF HBEC) treated with one dose of a specific SSO (1 uM, 12 hs) followed by one dose of OEC (apical or basolateral delivery, 2-4 uM, 2-3 hs). A significant increase of forskolin-stimulated CFTR activity in Ussing chamber analyses was observed 24-96 hs after SSO+OEC treatment compared to SSO alone treatment or vehicle. OEC was efficacious delivered apically as well as basolaterally. Transepithelial resistance and microscopy tests were implemented to monitor cytotoxicity, which was negligible for both SSO and OEC (FIG. 12). In vivo studies were performed in a transgenic mouse model that has a SSO-inducible EGFP reporter.
SSOs (100 nM) were introduced in airway epithelial cells derived from a 3849+10 kbC-T homozygous CF patient in suspension by electroporation using the Neon system, program A4. Cells were differentiated for 2 weeks in culture on human collagen-coated permeable supports (Millipore) before being tested in Ussing chambers following methods described in Kreda et al. […] “Characterization of Wild-Type and ΔF508 Cystic Fibrosis Transmembrane Regulator in Human Respiratory Epithelia” Mol. Biol. Cell 16(5):2154-2167 (100 uM Amiloride, Amil; 10 uM Forskolin, Fsk; 20 uM CFTR inhibitor 172). After Ussing chamber analysis, cells were lysed and assayed for RT-PCR as described in Wang et al 2017 (FIG. 11).
(SEQ ID NO:2), C (5′+G*mA*mG*mU*+C*mU*mU**mU*mA*+C*mU*mC*mA*mC*mC*+A*mU*mU*mU) (SEQ ID NO:3) (Locked Nucleic Acid (LNA)=+, PS=*, 2′OMe=m). In SSO sequences A, B, and C the underlined bases indicate oligo bases that match up to the bases in the mutated splice site in the 3849+10 kb C-T CFTR splicing mutation. MM623 or SSO623 sequences are described herein. […]

[2] = tested on: P-glycoprotein (Pgp) expression in NIH-3T3-MDR cells; experiment: ASO mediated inhibition of MDR1 gene expression (Pgp by flow cytometry); assay type: cell-based, mouse; settings: 100 nM anti-MDR1 ASO 16 h; 10 μM UNC2383 2 h where used; 48 h
Protocol: FIG. 4. Effects with ASOs. Reduction of Pgp expression. NIH 3T3-MDR cells were incubated with 100 nM anti-MDR1 ASO or a mismatched (MM) control for 16 h in DMEM+1% FBS. Cells were rinsed and then treated with 10 μM UNC2383 for 2 h. The compound was removed, and the cells further incubated for 48 h. Expression of Pgp on the cell surface was determined by treating cells with Alexa 488 labeled anti-Pgp monoclonal antibody and binding quantitated by flow cytometry (PE(A)=units of fluorescence intensity). Treatment with ASO complexed with Lipofectamine 2000 (L2K) was a positive control. Y axis, cell counts; X axis, Alexa 488 fluorescence. […] Means±SE, N=3.
We also tested UNC2383 for its ability to affect ASOs rather than SSOs. The ASO was designed to inhibit expression of the MDR1 gene and its product the P-glycoprotein multidrug transporter. […] Cell surface expression of P-glycoprotein was monitored using an Alexa 488 labeled anti-Pgp monoclonal antibody and flow cytometry. […]
SSO-mediated luciferase induction assays were conducted as previously described. (18) In short, HeLaLuc705 cells in 24 well culture plates were preincubated with SSO623 followed by brief treatment with the small molecule; at intervals thereafter, luciferase activity and protein content were determined. […] Cytotoxicity of 2383 was monitored using the Alamar Blue assay. […]

For O=C(Nc1nc2ccccc2n1CCN1CCCC1)c1cc2cc(Cl)ccc2o1 [UNC2383], the “CFTR channel activity / functional correction” value ([1]; SSO A 1 uM overnight, OEC 4 uM 2 hs luminal or serosal, 72 h, approved drugs in parallel) was “significant enhancement”, the “oligonucleotide enhancing activity in human airway epithelial cells” value ([1]; in vitro) was “negligible activity” and the “Pgp expression on the cell surface” value [2] was “substantial reduction”.
